The test system of one data set is A549. Briefly: Antiproliferative activity human A549 cells assessed as cell growth inhibition measured after 72 hrs by CCK8 assay. To be noted: A549, 72 h. In general terms: Tetrazolium dyes change colour on reduction, which living cells bring about.
For another data set, the system named is HepG2. Briefly: Antiproliferative activity human HepG2 cells assessed as cell growth inhibition measured after 72 hrs by CCK8 assay. To be noted: HepG2, 72 h.
The nature of data set [1]: Cytotoxicity against human K562 cells assessed as cell growth inhibition measured after 72 hrs by CCK8 assay. Format: toxicity, cell-based.
In data set [2] the test system is MV4-11. The data set is described as follows: Antiproliferative activity against human MV4-11 cells harboring FLT3-ITD mutant assessed as cell growth inhibition measured after 72 hrs by CCK8 assay. To be noted: MV4-11, 72 h.
Data set [3] in a line: Cytotoxicity against HUVEC cells assessed as cell growth inhibition measured after 72 hrs by CCK8 assay. The data set is classed as toxicity, cell-based. To be noted: human.
The test system of the next data set is MOLM-13. The data set is described as follows: Antiproliferative activity against human MOLM-13 cells harboring FLT3-ITD mutant assessed as cell growth inhibition measured after 72 hrs by CCK8 assay. To be noted: MOLM-13, 72 h.
The test system of another data set is HL-60. The data set is described as follows: Antiproliferative activity against human HL-60 cells harboring wildtype FLT3 assessed as cell growth inhibition measured after 72 hrs by CCK8 assay. To be noted: HL-60, 72 h.
Data set [4] relates to MV4-11. Briefly: Induction of apoptosis in human MV4-11 cells assessed as viable cells at 0.1 uM measured after 48 hrs by Annexin V-FITC/PI double staining based flow cytometric analysis (reference value: 80.26 %). The data set is classed as functional. To be noted: read-out: Activity. For orientation: Flow cytometry measures light scatter and fluorescence of single cells or particles in a stream.

Data set [5] has as its system MV4-11. Briefly: Induction of apoptosis in human MV4-11 cells assessed as early apoptotic cells at 0.1 uM measured after 48 hrs by Annexin V-FITC/PI double staining based flow cytometric analysis (reference value: 2.04 %). Format: functional.
Data set [6] has as its system MV4-11. Briefly: Induction of apoptosis in human MV4-11 cells assessed as late apoptotic cells at 0.1 uM measured after 48 hrs by Annexin V-FITC/PI double staining based flow cytometric analysis (reference value: 12.03 %). The data set is classed as functional.
Data set [7] concerns MV4-11. Briefly: Induction of apoptosis in human MV4-11 cells assessed as necrotic cells at 0.1 uM measured after 48 hrs by Annexin V-FITC/PI double staining based flow cytometric analysis (reference value: 5.67 %). The data set is classed as functional.

pIC50: −log10 of the molar value. Bounds are passed on as bounds.

By pIC50 is commonly meant −log10 of the IC50, conventionally taken in molar units. The IC50 is the concentration that gives 50% inhibition. In the case of `C=CC(=O)Nc1ccc(C(=O)Nc2ccc(-c3cc(C)nc4noc(N)c34)cc2)c(C(F)(F)F)c1`, the pIC50 with A549 is < 5.00; in the data set with HepG2 it was < 5.00; in the data set with MV4-11 [2], 5.04; in the data set on MOLM-13, 5.16; in the data set with HL-60 it was 5.43. Also, the IC50 at 72 h in data set [1] and in [3] was > 10 µM in each case.

For the molecule `C=CC(=O)Nc1ccc(C(=O)Nc2ccc(-c3cc(C)nc4noc(N)c34)cc2)cc1C`, the pIC50 in the data set on A549 is < 5.00; with HepG2 it was 5.64; with MV4-11 [2], 5.48; in the data set with MOLM-13, < 5.00; with HL-60 it was 6.35. The results for the IC50 at 72 h in [1] and in data set [3] were 2.77 µM and 3.23 µM, respectively.

Consider `C=CC(=O)Nc1cccc(C(=O)Nc2ccc(-c3cc(C)nc4noc(N)c34)cc2)c1`, for which the pIC50 in the data set with A549 was < 5.00; in the data set on HepG2 it was 5.12; with MV4-11 [2], 6.46; with MOLM-13, 6.15; with HL-60, 5.40. Moreover, the IC50 at 72 h in data set [1] and in data set [3] was > 10 µM throughout.

As to `C=CC(=O)Nc1ccc(C(=O)Nc2ccc(-c3cc(C)nc4noc(N)c34)cc2)cc1`, the pIC50 with A549 is < 5.00; in the data set on HepG2 it was < 5.00; in the data set on MV4-11 [2], 5.80; in the data set with MOLM-13, 5.32; in the data set with HL-60, 5.36. Also, the IC50 at 72 h in data set [1] and in [3] was > 10 µM throughout.

In the case of `C=CC(=O)Nc1ccc(C(=O)Nc2ccc(-c3cc(C)nc4noc(N)c34)cc2)cc1F`, the pIC50 with A549, with HepG2, in the data set with MV4-11 [2], in the data set with MOLM-13 and in the data set with HL-60 was < 5.00 each time. In addition, the IC50 at 72 h in [1] and in data set [3] was > 10 µM throughout.

For `C=CC(=O)Nc1ccc(C(=O)Nc2ccc(-c3cc(C)nc4noc(N)c34)cc2)cc1OC`, the negative-log IC50 (pIC50) in the data set on A549 was < 5.00; in the data set with HepG2, < 5.00; with MV4-11 [2] it was 5.32; with MOLM-13, < 5.00; in the data set with HL-60, < 5.00. The IC50 at 72 h in [1] and in data set [3] was > 10 µM each time.

As to `C=CC(=O)N1CCC(C(=O)Nc2ccc(-c3cc(C)nc4noc(N)c34)cc2)CC1`, the negative-log IC50 (pIC50) in the data set on A549, in the data set with HepG2, with MV4-11 [2], in the data set on MOLM-13 and in the data set with HL-60 was < 5.00 in each case. The IC50 at 72 h in [1] and in [3] was > 10 µM throughout.

As to `C=CC(=O)Nc1ccc(CCC(=O)Nc2ccc(-c3cc(C)nc4noc(N)c34)cc2)cc1`, the pIC50 with A549 was < 5.00; in the data set on HepG2, < 5.00; with MV4-11 [2] it was 5.87; in the data set with MOLM-13, 5.13; with HL-60, < 5.00. In addition, the half-maximal inhibitory concentration (IC50) at 72 h in data set [1] and in data set [3] was > 10 µM in each case.

Turning to `C=CC(=O)Nc1ccc(C(=O)Nc2ccc(-c3cc(C)nc4noc(N)c34)cc2)cc1Br`, the negative logarithm of the IC50 (pIC50) in the data set with A549 is < 5.00; with HepG2 it was 5.57; in the data set with MV4-11 [2], 5.91; in the data set with MOLM-13 it was 5.13; in the data set on HL-60, 6.22. Moreover, the IC50 at 72 h in data set [1] and in data set [3] was > 10 µM each time.

Regarding `C=CC(=O)Nc1cccc(NC(=O)Nc2ccc(-c3cc(C)nc4noc(N)c34)cc2)c1`, the pIC50 with A549 was < 5.00; with HepG2 it was < 5.00; in the data set on MV4-11 [2], 5.98; in the data set on MOLM-13 it was 5.64; with HL-60, < 5.00. In addition, the IC50 at 72 h in data set [1] and in [3] was > 10 µM throughout.

As to `C=CC(=O)Nc1ccc(C(=O)Nc2ccc(-c3cc(C)nc4noc(N)c34)cc2)cc1Cl`, the pIC50 is 5.26 with A549; 5.58 in the data set with HepG2; 6.17 with MV4-11 [2]; 5.42 in the data set with MOLM-13; 6.51 in the data set on HL-60. Further, the figures for the IC50 at 72 h in data set [1] and in data set [3] were 7.52 µM and 2.65 µM, respectively.

Take `Cc1ccc(F)c(NC(=O)Nc2ccc(-c3cccc4[nH]nc(N)c34)cc2)c1` [LINIFANIB]: the viability at 0.1 µM in the data set on MV4-11 [4] was 33.4%. Further, the Activity was 0.55% in the data set with MV4-11 [5], 50.7% in the data set with MV4-11 [6] and 15.38% in the data set with MV4-11 [7]. The pIC50 with A549 is 5.08; in the data set with HepG2 it was 5.40; in the data set on MV4-11 [2] it was 8.47; with MOLM-13 it was 7.72; in the data set on HL-60, 5.10. Further, the half-inhibitory concentration (IC50) at 72 h is 6.96 µM in data set [1] and 4.92 µM in data set [3].

Take `C=CC(=O)Nc1ccc(CC(=O)Nc2ccc(-c3cc(C)nc4noc(N)c34)cc2)cc1`: the pIC50 in the data set with A549 is < 5.00; in the data set on HepG2 it was < 5.00; with MV4-11 [2] it was 5.66; in the data set with MOLM-13, 5.21; in the data set with HL-60, 5.07. Also, the IC50 at 72 h in [1] and in [3] was > 10 µM in each case.

With `Cc1cc(-c2ccc(NC(=O)Nc3ccc(Cl)c(C(F)(F)F)c3)cc2)c2c(N)onc2n1`, the negative logarithm of the IC50 (pIC50) in the data set on A549 is 5.14; in the data set on HepG2, < 5.00; in the data set with MV4-11 [2] it was 9.05; with MOLM-13, 8.34; with HL-60, < 5.00. Further, the IC50 at 72 h in [1] is 1.73 µM; in data set [3], > 10 µM.

Regarding `C=CS(=O)(=O)Nc1ccc(C(=O)Nc2ccc(-c3cc(C)nc4noc(N)c34)cc2)cc1`, the pIC50 in the data set on A549 was < 5.00; with HepG2, < 5.00; in the data set on MV4-11 [2], 5.59; in the data set with MOLM-13, < 5.00; in the data set on HL-60, < 5.00. Further, the IC50 at 72 h in data set [1] and in data set [3] was > 10 µM throughout.

Regarding `C=CC(=O)Nc1cccc(CC(=O)Nc2ccc(-c3cc(C)nc4noc(N)c34)cc2)c1`, the pIC50 was < 5.00 in the data set on A549; < 5.00 in the data set on HepG2; 5.90 in the data set with MV4-11 [2]; 5.60 in the data set on MOLM-13; 5.13 in the data set with HL-60. In addition, the IC50 at 72 h in data set [1] and in data set [3] was > 10 µM each time.

(Values after ChEMBL document CHEMBL5113503, “Synthesis and biological evaluation of 4-(4-aminophenyl)-6-methylisoxazolo[3,4-b] pyridin-3-amine covalent inhibitors as potential agents for the treatment of acute myeloid leukemia” (Bioorg Med Chem, 2022).)
